Assay results taken from patent US20090176839A1, “FORMULATIONS OF 3-(6-(1-(2,2-DIFLUOROBENZO[D][1,3]DIOXOL-5-YL) CYCLOPROPANECARBOXAMIDO)-3-METHYLPYRIDIN-2-YL)BENZOIC ACID” (priority 2007, published 2009).

Assays:
[1] = Toxicokinetics in acute oral toxicity study in rats; assay type: in vivo
Excerpt: Compound 1 was also well absorbed in rats with time to reach maximum plasma concentrations(tmax) ranging from 4.0 to 24.0 hr.

[2] = Toxicokinetics in 7-day dose range finding study in rats; assay type: in vivo; conditions: 300 mg/kg/day; for Cmax: rat, plasma, oral
Method: The animals were dosed orally with the vehicle (0.5% methylcellulose in water), or 15, 75, or 150 mg/kg Compound 1 twice daily for 7 consecutive days. The two daily doses were administered approximately 10 hours apart and the dose volume was 5 mL/kg/b.i.d. for all dose groups. At the end of the dosing period, all animals were euthanized and necropsied. Satellite animals (6/sex/Groups 2-4) were dosed in the same manner as the toxicity animals and plasma samples were collected on Days 1 and 7 for toxicokinetic (TK) analysis. Parameters evaluated during the study were: viability, clinical observations, body weights, feed consumption, clinical pathology (termination), organ weights, macroscopic observations and microscopic pathology.
The plasma AUC0-24 data on Day 1 was consistent with previously conducted single dose studies of Compound 1 in the rat.

[3] = Toxicokinetics in 14-day oral toxicity study in dogs; conditions: dog, in vivo, 200 mg/kg/day
Excerpt: There were no major differences noted in TK parameters between males and females, or when comparing study Day 1 to study Day 14.

hERG = hERG (Homo sapiens, UniProt Q12809); assay: hERG electrophysiological techniques; assay type: cell-based; conditions: variety of electrophysiological techniques
Sequence of hERG (Q12809 whole entry): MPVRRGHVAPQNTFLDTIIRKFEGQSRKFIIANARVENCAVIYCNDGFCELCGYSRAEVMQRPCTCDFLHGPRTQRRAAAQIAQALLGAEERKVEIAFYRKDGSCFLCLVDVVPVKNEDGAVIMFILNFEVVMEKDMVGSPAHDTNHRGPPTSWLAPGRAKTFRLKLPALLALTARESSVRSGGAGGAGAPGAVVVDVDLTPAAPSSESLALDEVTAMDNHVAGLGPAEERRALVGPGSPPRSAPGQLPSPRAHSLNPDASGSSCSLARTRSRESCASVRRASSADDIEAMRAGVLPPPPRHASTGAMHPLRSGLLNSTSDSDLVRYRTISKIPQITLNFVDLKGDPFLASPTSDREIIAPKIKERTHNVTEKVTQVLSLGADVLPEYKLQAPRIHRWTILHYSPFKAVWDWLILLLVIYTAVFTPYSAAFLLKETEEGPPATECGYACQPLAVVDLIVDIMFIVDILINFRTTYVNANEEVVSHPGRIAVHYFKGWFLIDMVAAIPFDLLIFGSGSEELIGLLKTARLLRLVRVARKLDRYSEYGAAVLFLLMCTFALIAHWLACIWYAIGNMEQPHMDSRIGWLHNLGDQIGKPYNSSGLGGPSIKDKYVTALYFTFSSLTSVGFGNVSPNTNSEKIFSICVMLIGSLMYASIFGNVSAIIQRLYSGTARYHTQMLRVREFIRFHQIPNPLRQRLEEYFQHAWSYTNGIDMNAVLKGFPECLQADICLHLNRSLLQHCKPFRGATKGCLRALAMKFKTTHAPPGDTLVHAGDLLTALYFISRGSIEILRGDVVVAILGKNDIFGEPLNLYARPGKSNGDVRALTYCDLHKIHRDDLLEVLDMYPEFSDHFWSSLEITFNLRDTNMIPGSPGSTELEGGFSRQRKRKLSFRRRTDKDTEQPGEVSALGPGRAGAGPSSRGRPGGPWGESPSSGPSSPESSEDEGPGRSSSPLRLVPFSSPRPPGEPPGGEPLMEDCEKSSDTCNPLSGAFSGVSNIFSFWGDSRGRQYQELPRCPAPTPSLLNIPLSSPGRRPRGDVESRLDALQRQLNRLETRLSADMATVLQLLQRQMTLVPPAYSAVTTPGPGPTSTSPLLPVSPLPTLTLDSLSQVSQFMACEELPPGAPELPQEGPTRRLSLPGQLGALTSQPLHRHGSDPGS

[4] = system: Chinese hamster ovary (CHO) cell; assay: Chinese hamster ovary (CHO) chromosome aberration assay; assay type: cell-based; conditions: GLP
Method: The potential for genetic toxicology was tested using standard GLP bacterial mutation (Ames), Chinese hamster ovary (CHO) chromosome aberration, and in vivo mouse micronucleus assays: Compound 1 was negative in all tests. […] With the exception of the preliminary 7-day toxicity studies, all studies were performed according to GLP regulations.

rats [5] = conditions: rat, in vivo, 14 days
Method: (§1) Repeat-dose oral toxicity studies of 7- and 14-days duration have been conducted in rats (up to 600 mg/kg/day) and dogs (up to 200 mg/kg/day).

in vivo = conditions: male, beagle, dog, 200 mg/kg
rats [6] = assay: 14-day repeat-dose oral toxicity study in rats; conditions: assuming efficacious dose in rats 2.3 mg/kg b.i.d. (Ctrough at EC90)
Method: as §1

Cc1ccc(NC(=O)C2(c3ccc4c(c3)OC(F)(F)O4)CC2)nc1-c1cccc(C(=O)O)c1 [Compound 1, 3-(6-(1-(2,2-difluorobenzo[d][1,3]dioxol-5-yl)cyclopropanecarboxamido)-3-methylpyridin-2-yl)benzoic acid]
AUC0-24hr values, females vs. males ([1]; 500 mg/kg dose group): more than 2 fold | Cmax ([1]; Sprague Dawley, rat, plasma, po, 2000 mg/kg, Male): 306 µg/mL | AUC(0-t) ([1]; Sprague Dawley, rat, plasma, po, 2000 mg/kg, Male, read-out: AUC0-24 h): 6110 µg·h/mL | Tmax ([1]; Sprague Dawley, rat, plasma, po, 2000 mg/kg, Male, read-out: tmax): 24 h | Tmax ([1]; both sexes, rat, plasma, po, 500 to 2000 mg/kg, read-out: time to reach maximum plasma concentrations (tmax)): 4 to 24 h | half-life ([1]; both sexes, rat, plasma, po, could not be calculated at 1000 and 2000 mg/kg, read-out: elimination half-life (t1/2)): 9.4 to 10.8 h | Cmax ([1]; male, rat, plasma, po, males at 500 mg/kg): 135 µg/mL | AUC(0-t) ([1]; male, rat, plasma, po, males at 500 mg/kg, read-out: AUC0-24hr): 1390 µg·h/mL | Cmax ([1]; male, rat, plasma, po, males at 2000 mg/kg): 306 µg/mL | Cmax ([1]; rat, plasma, po, 2000 mg/kg, Female): 305 µg/mL | AUC(0-t) ([1]; rat, plasma, po, 2000 mg/kg, Female, read-out: AUC0-24 h): 6750 µg·h/mL | Tmax ([1]; rat, plasma, po, 2000 mg/kg, Female, read-out: tmax): 10 h | average plasma concentrations ([2]; females): ~190 µM | Cmax ([2]; female, females): ~280 µM | Cmax ([2]; male, males): ~430 µM | AUC(0-t) ([3]; both sexes, dogs, at the NOAEL (200 mg/kg/day), read-out: average AUC0-24hr): 645 µg·h/mL | Cmax ([3]; both sexes, dogs, at the NOAEL (200 mg/kg/day), read-out: average Cmax): 75 µg/mL | Tmax ([3]; female, beagle, Study Day 1, Female): 4 h | AUC(0-t) ([3]; female, beagle, Study Day 1, Female, read-out: AUC0-24 hr): 573 µg·h/mL | Cmax ([3]; female, beagle, Study Day 1, Female, read-out: Cmax): 56 µg/mL | Tmax ([3]; female, beagle, Study Day 14, Female): 3 h | AUC(0-t) ([3]; female, beagle, Study Day 14, Female, read-out: AUC0-24 hr): 720 µg·h/mL | Cmax ([3]; female, beagle, Study Day 14, Female, read-out: Cmax): 77 µg/mL | Tmax ([3]; male, beagle, Study Day 1, Male): 3 h | AUC(0-t) ([3]; male, beagle, Study Day 1, Male, read-out: AUC0-24 hr): 691 µg·h/mL | Cmax ([3]; male, beagle, Study Day 1, Male, read-out: Cmax): 77 µg/mL | Tmax ([3]; male, beagle, Study Day 14, Male): 3 h | AUC(0-t) ([3]; male, beagle, Study Day 14, Male, read-out: AUC0-24 hr): 598 µg·h/mL | Cmax ([3]; male, beagle, Study Day 14, Male, read-out: Cmax): 72 µg/mL | IC50 (hERG): ≥ 30 µM | clastogenicity (chromosome aberrations) [4]: negative | human equivalent dose (based on body surface area) (rats [5]): at least 95 mg/kg | human total daily dose equivalent (rats [5]): approximately 5700 mg | light microscopy of more than 40 organs and tissues (rats [5]): no significant Compound 1 related findings | dosage tolerated without toxic effects (rats [5]; po): up to 600 mg/kg/day | AUC(0-inf) (in vivo): 288 µg·h/mL | Cmax (in vivo): 52 µg/mL | concentration at 48 hr (in vivo): 0.063 µg/mL | Tmax (in vivo; po): 1.7 h | half-life (in vivo; po): 6.1 h | projected safety margin from the rat NOAEL (rats [6]): 130 ×
